Values of other authors in article PMC10482975 (Nature Communications, 2023).

Biological target: M2 mAChR
Conditions: read-out: predicted affinity for allosteric binding; cited from earlier work

In the case of `C[N+](C)(C)CC#CCN1CCCC1=O` [oxotremorine-M], the Kd is listed as greater than 1000 µM.
